Assay [1] concerns the target human BACE-2 (Homo sapiens (Human), UniProt Q9Y5Z0). Put plainly: Test 2: Inhibition of human BACE-2. The format is biochemical. The source says: Test 2: Inhibition of Human BACE-2
The target in assay [2] is human BACE-1 (Homo sapiens (Human), UniProt P56817). Put plainly: Test 1: Inhibition of human BACE-1.
[3] abbreviates: read-out: BACE-1 IC50, mean IC50, recombinant BACE-1, acetate buffer pH 4.5, fluorescence-quenched peptide substrate.
Where [4] appears, read: mean IC50, recombinant BACE-2, acetate buffer pH 4.5, fluorescence-quenched peptide substrate, read-out: BACE-2 IC50.

Read-outs that look alike come from different tables or passages of the source.

Chain of human BACE-1 (P56817 46-457): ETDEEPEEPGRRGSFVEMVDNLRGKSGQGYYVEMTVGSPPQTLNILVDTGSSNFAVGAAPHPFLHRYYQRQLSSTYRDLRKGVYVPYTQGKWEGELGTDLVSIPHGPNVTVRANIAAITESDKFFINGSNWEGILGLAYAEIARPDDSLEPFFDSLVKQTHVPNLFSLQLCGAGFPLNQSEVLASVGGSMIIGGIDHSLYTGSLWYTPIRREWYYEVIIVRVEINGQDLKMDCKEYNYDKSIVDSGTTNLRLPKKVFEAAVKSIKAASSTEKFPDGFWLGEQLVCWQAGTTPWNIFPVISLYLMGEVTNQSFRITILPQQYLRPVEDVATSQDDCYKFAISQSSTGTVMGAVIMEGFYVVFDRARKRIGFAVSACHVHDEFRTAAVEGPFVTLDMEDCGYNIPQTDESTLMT
Chain of human BACE-2 (Q9Y5Z0 63-473): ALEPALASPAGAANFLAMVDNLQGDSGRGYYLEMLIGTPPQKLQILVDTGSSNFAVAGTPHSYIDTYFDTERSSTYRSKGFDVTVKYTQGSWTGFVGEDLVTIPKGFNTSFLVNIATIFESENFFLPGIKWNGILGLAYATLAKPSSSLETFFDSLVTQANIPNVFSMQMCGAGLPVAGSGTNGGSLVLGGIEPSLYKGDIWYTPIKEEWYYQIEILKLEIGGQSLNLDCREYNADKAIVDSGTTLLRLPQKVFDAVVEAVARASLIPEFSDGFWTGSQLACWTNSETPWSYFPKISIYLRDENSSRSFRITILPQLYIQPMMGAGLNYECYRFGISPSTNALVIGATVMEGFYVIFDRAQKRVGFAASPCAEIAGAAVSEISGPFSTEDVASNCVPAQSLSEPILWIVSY

The IC50 is the concentration that gives 50% inhibition. Consider `Cc1cc(C(N)=S)cnc1C(=O)Nc1cc(C2(CF)COCC(N)=N2)ccn1` (stereo not shown) [Example 15, 5-Fluoromethyl-5-{2-[(3-methyl-5-thiocarbamoyl-pyridine-2-carbonyl)-amino]-pyridin-4-yl}-5,6-dihydro-2H-[1,4]oxazin-3-yl-ammonium trifluoro-acetate], for which the IC50 in assay [1] and in assay [2] was above 10000 nM in each case.

As to `COCCn1ccc2nc(C(=O)Nc3ccc(F)c([C@]4(C)CO[C@@](C)(C(F)(F)F)C(N)=N4)n3)c(N)nc21` [Example 43, 3-Amino-5-(2-methoxy-ethyl)-5H-pyrrolo[2,3-b]pyrazine-2-carboxylic acid [6-((3R,6R)-5-amino-3,6-dimethyl-6-trifluoromethyl-3,6-dihydro-2H-[1,4]oxazin-3-yl)-5-fluoro-pyridin-2-yl]amide], the results for the 50% inhibitory concentration (IC50) in assay [1] and in assay [2] (setting [3]) were above 10000 nM and 1200 nM, respectively.

`Cc1cc(OCF)cnc1C(=O)Nc1ccc(F)c([C@]2(C)CO[C@@](C)(C(F)(F)F)C(N)=N2)n1` [Example 32, 5-Fluoromethoxy-3-methyl-pyridine-2-carboxylic acid [6-((3R,6R)-5-amino-3,6-dimethyl-6-trifluoromethyl-3,6-dihydro-2H-[1,4]oxazin-3-yl)-5-fluoro-pyridin-2-yl]amide]: the half-maximal inhibitory concentration (IC50) in assay [1] (setting [4]) turned out to be 7 nM; in assay [2] (setting [3]) it was 45 nM.

For `C[C@@]1(c2nc(NC(=O)c3nn(C(F)F)cc3Cl)ccc2F)CO[C@@](C)(C(F)(F)F)C(N)=N1` [Example 46, 4-Chloro-1-difluoromethyl-1H-pyrazole-3-carboxylic acid [6-((3R,6R)-5-amino-3,6-dimethyl-6-trifluoromethyl-3,6-dihydro-2H-[1,4]oxazin-3-yl)-5-fluoro-pyridin-2-yl]-amide], the figures for the IC50 in assay [1] (setting [4]) and in assay [2] (setting [3]) were 5 nM and 10 nM, respectively.

For the molecule `NC1=NC(CF)(c2ccnc(NC(=O)c3ccc(Cl)cn3)c2)COC1` (stereo not shown) [Example 14, 5-{2-[(5-Chloro-pyridine-2-carbonyl)-amino]-pyridin-4-yl}-5-fluoromethyl-5,6-dihydro-2H-[1,4]oxazin-3-yl-ammonium trifluoro-acetate], the IC50 in assay [1] (setting [4]) was found to be 4800 nM; in assay [2] (setting [3]), 8100 nM.

As to `N#Cc1cnc(C(=O)Nc2ccc(F)c([C@]3(C(F)F)COCC(N)=N3)n2)c(Cl)c1` [Example 40, 3-Chloro-5-cyano-pyridine-2-carboxylic acid [6-((R)-5-amino-3-difluoromethyl-3,6-dihydro-2H-[1,4]oxazin-3-yl)-5-fluoro-pyridin-2-yl]-amide], the IC50 in assay [1] (setting [4]) amounted to 170 nM; in assay [2] (setting [3]), 42 nM.

Regarding `Cc1cc(C#N)cnc1C(=O)Nc1ccc(F)c([C@@]2(C(F)F)COCC(N)=N2)n1` [Example 39, 5-Cyano-3-methyl-pyridine-2-carboxylic acid [6-((S)-5-amino-3-difluoromethyl-3,6-dihydro-2H-[1,4]oxazin-3-yl)-5-fluoro-pyridin-2-yl]-amide], the results for the IC50 in assay [1] (setting [4]) and in assay [2] (setting [3]) were 6500 nM and 1500 nM, respectively.

As for `COc1cnc(C(=O)Nc2ccc(F)c([C@]3(C)CO[C@@](C)(C(F)(F)F)C(N)=N3)n2)c(C)c1` [Example 25, 5-Methoxy-3-methyl-pyridine-2-carboxylic acid [6-((3R,6R)-5-amino-3,6-dimethyl-6-trifluoromethyl-3,6-dihydro-2H-[1,4]oxazin-3-yl)-5-fluoro-pyridin-2-yl]amide], the IC50 in assay [1] (setting [4]) is 15 nM; in assay [2] (setting [3]) it was 93 nM.

Values taken from US8637508B2, “Heterocyclic derivatives and their use in the treatment of neurological disorders” (Novartis AG, priority 2011, dated 2014).
